Measurements: patent publication US20230303562A1, “PYRAZOLE COMPOUND AND PREPARATION METHOD THEREFOR AND USE THEREOF” (Sichuan Kelun-Biotech Biopharmaceutical Co., Ltd., priority 2020, published 2023)
Blank lines part the entries; values can stand above or below the molecule they belong to.

How the values were obtained:
[1] = Pharmacokinetics (PK) study in Balb/c mice; type: in vivo; conditions: female Balb/c mice; for bioavailability: mouse, read-out: F (bioavailability); for bioavailability / F (bioavailability): PO 10 mg/kg compared with IV 1 mg/kg
Description: The example compounds were administered to female Balb/c mice via intravenous injection (IV) and gastric perfusion (PO), respectively, and their pharmacokinetic properties were investigated. The administered doses for IV and PO were 1 mg/kg and 10 mg/kg, respectively. The solvent for IV was 5% DMSO+5% Solutol (15-hydroxystearic acid polyethylene glycol ester)+90% normal saline, the solvent for PO was 0.5% MC ([…] methylcellulose). Whole blood samples were collected at various time points after IV and PO administration, and subjected to EDTA-K2 anticoagulation before test.
Whole blood samples were processed by precipitating proteins and then subjected to LC-MS/MS analysis. The pharmacokinetic parameters were calculated by the non-compartmental model using WinNonlin 6.3 software, and the results were shown in Table 6 below.

TGFβR1 = TGFβR1 (Homo sapiens (Human), UniProt P36897); assay: In vitro enzymatic activity inhibition test (TGFβR1), ADP-Glo Kinase Detection Kit; type: biochemical; conditions: estimated from inhibition at 1000, 100, 10 nM
Description: Experimental method: According to the instructions of ADP-Glo™ Kinase Detection Kit (Promega), the inhibitory effect of the compounds of the present invention on the enzymatic activity of TGFβR1 was determined, and the steps were as follows:
TGFβR1 enzyme were pre-incubated with different concentrations of test compounds (1000 nM, 100 nM, 10 nM) at 30° C. for 30 min, TGFβR1 peptide and adenosine triphosphate (ATP) were added to initiate the reaction. The incubation was performed at 30° C. for 3 h, followed by an addition of ADP-Glo™ reagent and incubated at room temperature for 90 min, kinase detection reagent was then added. Chemiluminescence signal values were detected after incubation at room temperature for another 30 min. Taking the solvent group (DMSO) as the negative control and the buffer group (without TGFβR1 enzyme) as the blank control, the percent inhibition rates of different concentrations of compounds were calculated according to the following formula: […]
When the percent inhibition rate was between 30% and 80%, the median inhibitory concentration (IC50) or range of the compound was calculated according to the following formula:
IC50=X×(1−percent inhibition rate (%))/percent inhibition rate (%), wherein X is the concentration of the compound at which the inhibition rate is between 30% and 80%.

TGFβR2 = TGFβR2 (Homo sapiens (Human), UniProt P37173); assay: In vitro enzymatic activity inhibition test (TGFβR2), ADP-Glo Kinase Detection Kit; type: biochemical; conditions: MBP substrate, estimated from inhibition at 1000, 100, 10 nM
Description: The chemiluminescence signal values were detected after incubation at room temperature for another 30 min.

hERG = hERG (Homo sapiens (Human), UniProt Q12809); assay: Biochemical hERG inhibition test (Predictor hERG fluorescence polarization kit); type: binding; conditions: competition with Tracer, tested at 10 μM and 1 μM
Description: Kit: Predictor™ hERG fluorescence polarization detection kit (ThermoFisher), the kit contained the following components: positive control compound hERG potassium channel blocker E4031; hERG cell membrane; affinity tracer Tracer; and hERG buffer.
hERG concentration: 1×; Tracer concentration: 1 nM; incubation time: 2 h; BMG PHERAstar FS FP.
The test was carried out according to the kit instructions, and the steps were as follows:
Positive control group: 30 μM positive control compound E4031 was used to replace the test compound, and the experimental method was the same as that of the test group.
Blank control group: hERG buffer was used to replace the test compound without the addition of hERG cell membrane, and the experimental method was the same as that of the test group.
According to the data ratio, the percent inhibition rates (%) of the compounds of the present invention to hERG at different concentrations were calculated, and the ranges of the half inhibitory concentration (IC50) of the compounds were determined.

Chain of TGFβR1 (P36897 34-503): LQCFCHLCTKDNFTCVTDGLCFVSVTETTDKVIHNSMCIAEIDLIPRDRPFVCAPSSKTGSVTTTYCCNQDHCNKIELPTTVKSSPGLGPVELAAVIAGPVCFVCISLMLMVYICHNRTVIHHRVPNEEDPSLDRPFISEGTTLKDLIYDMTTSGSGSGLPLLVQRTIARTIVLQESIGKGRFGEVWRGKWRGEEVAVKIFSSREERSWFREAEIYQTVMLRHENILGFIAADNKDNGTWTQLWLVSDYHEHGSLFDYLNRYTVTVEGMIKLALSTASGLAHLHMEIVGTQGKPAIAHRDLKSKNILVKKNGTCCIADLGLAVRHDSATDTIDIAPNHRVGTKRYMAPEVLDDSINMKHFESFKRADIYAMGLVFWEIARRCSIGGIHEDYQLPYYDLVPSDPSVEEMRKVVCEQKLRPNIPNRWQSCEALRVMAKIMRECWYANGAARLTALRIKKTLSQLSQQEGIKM
Chain of hERG (Q12809 whole entry): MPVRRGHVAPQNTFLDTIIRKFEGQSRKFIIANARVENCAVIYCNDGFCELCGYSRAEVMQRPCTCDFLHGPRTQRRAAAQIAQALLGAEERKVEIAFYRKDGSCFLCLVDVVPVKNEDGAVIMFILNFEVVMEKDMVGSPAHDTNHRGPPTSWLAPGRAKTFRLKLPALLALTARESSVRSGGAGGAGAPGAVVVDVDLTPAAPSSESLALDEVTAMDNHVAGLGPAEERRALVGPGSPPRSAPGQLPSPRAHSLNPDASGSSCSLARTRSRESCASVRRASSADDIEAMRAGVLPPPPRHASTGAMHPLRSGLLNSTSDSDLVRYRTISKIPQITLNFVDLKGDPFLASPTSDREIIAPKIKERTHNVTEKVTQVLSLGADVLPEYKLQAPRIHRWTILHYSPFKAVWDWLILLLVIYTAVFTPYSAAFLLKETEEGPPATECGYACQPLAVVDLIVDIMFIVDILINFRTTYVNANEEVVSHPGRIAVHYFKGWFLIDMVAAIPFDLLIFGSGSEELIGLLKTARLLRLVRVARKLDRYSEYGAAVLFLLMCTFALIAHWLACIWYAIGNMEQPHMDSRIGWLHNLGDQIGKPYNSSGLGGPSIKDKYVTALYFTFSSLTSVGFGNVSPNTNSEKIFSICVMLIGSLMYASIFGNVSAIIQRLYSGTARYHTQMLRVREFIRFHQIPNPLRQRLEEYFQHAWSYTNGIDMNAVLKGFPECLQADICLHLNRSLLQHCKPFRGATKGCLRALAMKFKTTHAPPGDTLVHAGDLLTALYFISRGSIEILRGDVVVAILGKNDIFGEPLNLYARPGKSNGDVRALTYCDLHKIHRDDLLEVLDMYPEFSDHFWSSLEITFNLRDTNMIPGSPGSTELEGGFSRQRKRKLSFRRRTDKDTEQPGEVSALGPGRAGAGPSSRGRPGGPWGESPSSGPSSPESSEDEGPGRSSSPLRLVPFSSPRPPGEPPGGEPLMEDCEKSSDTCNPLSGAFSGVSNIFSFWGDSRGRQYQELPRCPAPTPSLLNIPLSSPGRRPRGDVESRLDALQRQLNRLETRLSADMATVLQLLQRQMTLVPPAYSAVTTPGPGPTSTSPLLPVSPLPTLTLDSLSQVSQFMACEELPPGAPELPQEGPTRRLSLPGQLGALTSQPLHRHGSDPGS
Chain of TGFβR2 (P37173 23-567): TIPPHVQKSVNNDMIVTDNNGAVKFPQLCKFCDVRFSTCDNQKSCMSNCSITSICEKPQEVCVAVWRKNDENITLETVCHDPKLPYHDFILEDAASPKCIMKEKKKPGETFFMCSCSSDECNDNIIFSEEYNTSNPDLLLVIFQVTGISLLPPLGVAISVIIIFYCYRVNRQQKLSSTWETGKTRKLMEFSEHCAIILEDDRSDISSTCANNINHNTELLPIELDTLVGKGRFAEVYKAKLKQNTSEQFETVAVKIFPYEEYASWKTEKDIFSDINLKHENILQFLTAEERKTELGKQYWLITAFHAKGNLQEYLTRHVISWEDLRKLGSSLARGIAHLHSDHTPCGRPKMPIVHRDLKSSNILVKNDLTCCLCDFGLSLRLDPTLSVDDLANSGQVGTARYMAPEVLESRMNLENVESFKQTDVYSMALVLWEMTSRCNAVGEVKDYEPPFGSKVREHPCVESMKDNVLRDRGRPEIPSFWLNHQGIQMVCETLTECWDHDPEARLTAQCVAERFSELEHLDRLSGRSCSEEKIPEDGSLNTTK

T1/2 ([1]; PO, 10 mg/kg, whole blood): 31.2 ± 10.8 min
bioavailability ([1]; whole blood): 52.1%
SMILES: Cc1cccc(-n2nccc2-c2ccn3ncc(C(N)=O)c3c2)n1 [Example 12, 5-(1-(6-methylpyridin-2-yl)-1H-pyrazol-5-yl)pyrazolo[1,5-a]pyridine-3-carboxamide]

T1/2 ([1]; PO, 10 mg/kg, whole blood): 108 ± 21 min
bioavailability ([1]; whole blood): 98.1%
SMILES: CNc1cc(-c2ccn3ncc(C(N)=O)c3c2)n(-c2cccc(C)n2)n1 [Example 8, 5-(3-(methylamino)-1-(6-methylpyridin-2-yl)-1H-pyrazol-5-yl)pyrazolo[1,5-a]pyridine-3-carboxamide]

SMILES: Cc1cccc(-n2nc3c(c2-c2ccn4ncc(C(N)=O)c4c2)CCC3)n1 [Example 6, 5-[2-(6-methylpyridin-2-yl)-2,4,5,6-tetrahydrocyclopenteno[c]pyrazol-3-yl]pyrazolo[1,5-a]pyridine-3-carboxamide]
AUClast ([1]; IV, 1 mg/kg, whole blood): 578 ± 4 ng·h/mL
Cl ([1]; IV, 1 mg/kg, whole blood): 28.4 ± 0.3 mL/min/kg
Cmax ([1]; IV, 1 mg/kg, whole blood): 1163 ± 58 ng/mL
F (bioavailability) [1]: 61.4 ± 9.5%
F (bioavailability) ([1]; listed as Example VI): 61.4%
AUClast ([1]; PO, 10 mg/kg, whole blood): 3586 ± 563 ng·h/mL
Cmax ([1]; PO, 10 mg/kg, whole blood): 7440 ± 226 ng/mL
T1/2 ([1]; PO, 10 mg/kg, whole blood): 27.6 ± 11.4 min
T1/2 ([1]; PO, 10 mg/kg, whole blood, listed as Example VI): 27.6 min

IC50 (TGFβR1): 48.6 ± 18.6 nM
IC50 (TGFβR2): > 1000 nM
SMILES: Cc1cccc(-n2nccc2-c2ccc3ncsc3c2)n1 [Example 1, 6-(1-(6-methylpyridin-2-yl)-1H-pyrazol-5-yl)benzo[d]thiazole]
IC50 (hERG): > 10 µM
